Results on 2 molecules are retold here after publication PMC11996864, “A small-molecule inhibitor of BCL10-MALT1 interaction abrogates progression of diffuse large B cell lymphoma” (The Journal of Clinical Investigation, 2025).

Molecules are shown by their SMILES. Several values for one entry are separate records, joined by “and”; a condition that tells them apart may be missing. Equal values may be shown once.

What all share (format): cell-based, human
The test system of test [1] is IL2 mRNA in Jurkat T cells. The test can be described thus: IL2 mRNA induction by PMA/Iono, qRT-PCR. The note with it: for IL2 mRNA (normalized): Jurkat, + PMA/Iono. The procedure:
qRT-PCR. Jurkat T cells grown in serum free media for 4 hours with indicated inhibitors prior to stimulation with PMA/Ionomycin for 4 hours. […]
Total RNA extraction from the […]
(§1) Kit. RNA was transcribed into cDNA using High-Capacity cDNA Reverse Transcription Kit (Applied Biosystems, Cat# 4368814) according to manufacturer’s instructions. RT-PCR was performed using TaqMan Universal PCR Master Mix (Applied Biosystems, Cat# 4304437) and run on a StepOnePlus Real-Time PCR machine (Applied Biosystems). The following probes from ThermoFisher Scientific were used for qRT-PCR: IL2 TaqMan probe Hs00174114, IL6 TaqMan
Background: Quantitative PCR measures a nucleic acid by following its amplification.

Test [2] deals with N4BP1 cleavage in Jurkat T cells. The test can be described thus: CD3/CD28-induced N4BP1 cleavage, Western blot (MALT1 protease activity). The procedure:
(§2) Western blot analysis of RelB and N4BP1 cleavage was used to test the effect of small molecules on MALT1 protease activity. To this end, 3 million Jurkat T cells were pretreated with compounds for 24 hours in serum-free media, and then 5 μM MG-132 was added for 1 hour before stimulation with CD3/CD28 (Stemcell Technologies, catalog 10971), and lysed in RIPA buffer (Millipore, catalog 20-188) with protease and phosphatase inhibitor cocktail (Pierce, catalog 78446). IKKα/β phosphorylation and IκBα phosphorylation were used as measures of MALT1 scaffolding activity, while ERK1/2 phosphorylation was used as a control. Two million Jurkat T cells were treated with 1 μM M1i-124, 1 μM M1i-124d1, or DMSO in serum-free media for 16 hours, stimulated with CD3/CD28 for 0, 5, 10, or 20 minutes, and then immediately lysed in RIPA buffer with protease and phosphatase inhibitors. For experiments evaluating RelB cleavage and phosphorylation of IκBα in TMD8 cells, cells were treated with compounds for 24 hours in media containing 5% FBS. For RelB Western blot analysis, 5 μM MG-132 (Cell Signaling Technology, catalog 2194s) was added 4 hours before lysis in RIPA lysis buffer with protease/phosphatase inhibitors.
For orientation: In western blotting, separated proteins are transferred to a membrane and probed.

The test system of test [3] is BCL10 and MALT1 protein in TMD8 cells. The test is described as follows: BCL10 and MALT1 protein levels, Western blot. Conditions: 72 hours, result in words; for BCL10 and MALT1 protein levels: TMD8, 1 μM. The procedure:
(§3) To test the possibility that M1i-124 destabilizes BCL10 and MALT1 within the cell as a consequence of disrupting BCL10-MALT1 interaction, we treated ABC-DLBCL cell lines (TMD8, OCI-Ly3) with M1i-124 for 72 hours and measured the cellular levels of the BCL10 and MALT1 proteins by Western blotting.
(§4) Figure 5 M1i-124 treatment leads to loss of BCL10 and MALT1 protein content in ABC-DLBCL cells. (A) Representative Western blots showing loss of BCL10 and MALT1 proteins, but not ERK1/2 protein, in TMD8 and OCI-Ly3 cells after 72 hours of treatment with 1 μM M1i-124. […] (B) Representative Western blots showing time-dependent loss of BCL10 and MALT1 in TMD8 cells treated with 1 μM M1i-124. (C) Representative Western blots showing dose-dependent loss of BCL10 and MALT1 proteins in TMD8 cells treated with […]. For A–C, band quantifications, normalized for GAPDH, are indicated below each blot. (D) Time-dependent change in BCL10 and MALT1 mRNA expression levels with 1 μM M1i-124 treatment in TMD8 cells. Statistical analysis was performed using unpaired t test between 0 hours and 72 hours (mean ± SEM; n = 3). *P < 0.05, ****P < 0.0001.

Test [4] concerns BCL10 and MALT1 protein in OCI-Ly3 cells. The test is described as follows: BCL10 and MALT1 protein levels, Western blot. Conditions: OCI-Ly3, 1 μM, 72 hours, result in words. The procedure: as §3, §4
The subject of test [5] is OCI-Ly3 cells. The test is described as follows: IL6 and IL10 mRNA, qRT-PCR. The procedure: Total RNA extraction from cell lines was performed using RNeasy Plus Mini Kit (Qiagen, Cat# 74136). […]
as §1

In test [6] the test system is OCI-Ly3 cells. The test is described as follows: Cell proliferation, trypan blue cell count. The note with it: Day 0; Mepazine at 1 µM.
The subject of test [7] is IL-2 secretion from Jurkat T cells. The test is described as follows: Secreted IL-2 ELISA after PMA/Iono. The note with it: for IL-2: PMA/Iono. The procedure: Cytokine ELISAs. Cytokines in cell culture supernatants were measured 20-24h after treatment with 0, 0.01, 0.03, 0.1, 0.3, 1, or 3 µM of compounds using the following ELISA kits according to the manufacturer’s instructions: Human IL-2 ELISA (BioLegend Cat# 431804), Human IL-6 ELISA (BioLegend Cat# 430504), and Human IL-10 ELISA (BioLegend Cat# 430604). […]
Jurkat T cells were pretreated with specific doses of compounds for 8 hours in serum-free media, then stimulated with PMA/ionomycin for 16 hours prior to the collection of supernatants. […]
A general note: ELISA stands for enzyme-linked immunosorbent assay.

The subject of test [8] is TMD8 cells. The test can be described thus: Cell proliferation, trypan blue cell count. Conditions: for TMD8 Viable Cells: Mepazine at 1 µM. The source says: (§5) Cell proliferation, viability, and apoptosis assays. Starting with ~20,000 DLBCL cells in 5% FBS
(§6) at day 0, cell number was counted using the trypan blue dye exclusion method with Vi-CELL cell

Test [9] concerns OCI-Ly7 cells. The test can be described thus: Cell proliferation, trypan blue cell count. Conditions: for Viable cell count: second block headed OCI-Ly1, Day 0, Mepazine at 1 µM.
Excerpt: as §5, §6

Test [10] concerns OCI-Ly1 cells. The test can be described thus: Cell proliferation, trypan blue cell count. Conditions: for OCI-Ly1 Viable Cells: Mepazine at 1 µM.
Excerpt: as §5, §6

Test [11] has as its system RelB cleavage in Jurkat T cells. The test can be described thus: CD3/CD28-induced RelB cleavage, Western blot (MALT1 protease activity). The procedure: as §2
The subject of test [12] is RelB cleavage in TMD8 cells. The test is described as follows: Constitutive RelB cleavage, Western blot. Conditions: result in words. The procedure:
as §2

The test system of test [13] is TMD8 cells. The test is described as follows: IL6 and IL10 mRNA, qRT-PCR. The note with it: TMD8, 1 μM. The procedure: TMD8 cells were treated with small molecule inhibitors for 24 with cultures conditions described above except that FBS was 5%. OCI-Ly3 were treated with inhibitors in serum free media for 24 hours. Total RNA extraction from cell lines was performed using RNeasy Plus Mini Kit (Qiagen, Cat# 74136). […]
as §1

[14] abbreviates: Jurkat T cells, 1 μM pretreatment, + CD3/CD28.

For `O=S(=O)(NCc1ccc2c(c1)OCO2)c1ccc(Cc2ccc(S(=O)(=O)NCc3ccc4c(c3)OCO4)cc2)cc1` [M1i-124], the “IL2 mRNA (normalized)” value in [1] (1 μM) is 0.1638 and 0.218 and 0.2454. The “PMA/Iono-induced IL2 gene expression” value in [1] (pretreatment 4 hours, result in words) is on record as “reduction in PMA/Iono–induced IL2 gene expression”. Further, the “N4BP1 cleavage in stimulated Jurkat T cells” value in test [2] (result in words) is listed as “suppressed the cleavage”. The ERK1/2 protein levels result in test [3] (1 μM) is given as “no change”. In addition, the “BCL10 and MALT1 protein levels” value in test [3] is “potently induced the loss of both MALT1 and BCL10 proteins”; in [4], “potently induced the loss of both MALT1 and BCL10 proteins”. In addition, the “IL6 and IL10 mRNA levels” value in test [5] (OCI-Ly3, 1 μM, 24 hours, result in words) is “significantly decrease IL6 and IL10 mRNA levels”; in test [13] (24 hours, result in words), “significantly decrease IL6 and IL10 mRNA levels”. In addition, the “IL6 mRNA levels (normalized)” value in test [5] (Suppl Fig. 5C) was 0.63 and 0.57 and 0.56 and 0.54 and 0.48 and 0.61. For the same molecule, in test [5] (Suppl Fig. 5C), the “IL10 mRNA levels (normalized)” value is 0.7074 and 0.77 and 0.73 and 0.8 and 0.4913 and 0.4249 and 0.7438. In addition, in [6], the “OCI-Ly3 Viable Cells” value came out at 20000. Besides, the “IL-2” value in [7] (Jurkat, 0.01uM) was 670.787 pg/mL and 749.967 pg/mL and 766.89 pg/mL; in test [7] (Jurkat, 0.03uM), 564.302 pg/mL and 507.452 pg/mL and 318.494 pg/mL; in [7] (Jurkat, 0.1uM) it was 327.873 pg/mL and 411.405 pg/mL and 266.705 pg/mL; in [7] (Jurkat, 0.3uM) it was 173.693 pg/mL and 247.879 pg/mL and 193.913 pg/mL; in [7] (Jurkat, 1uM), 222.117 pg/mL and 210.011 pg/mL and 120.037 pg/mL; in test [7] (Jurkat, 3uM), 304.615 pg/mL and 288.86 pg/mL and 235.369 pg/mL. Moreover, the “IL-2 protein level (% of control)” value in [7] (PMA/Iono treated, Suppl Fig. 4A) is 34.6066 % of control and 35.497 % of control and 25.5648 % of control. Further, the “IL-2 secretion from Jurkat T cells” value in [7] (result in words) is reported as “dose-dependent reduction in IL-2 secretion”. Moreover, the “TMD8 Viable Cells” value in test [8] (Day 0) turned out to be 20000. In addition, the “expansion of culture (proliferation)” value in test [8] (TMD8, single 1 μM dose, 12 days, result in words) is given as “significant reduction in the expansion”; in test [9] (OCI-Ly7, single 1 μM dose, 12 days, result in words), “no effect on expansion”; in test [10] (OCI-Ly1, single 1 μM dose, 12 days, result in words), “no effect on expansion”. For the same molecule, the Viable cell count in test [9] was 20000 and 40000. Moreover, the “OCI-Ly1 Viable Cells” value was 40000 and 20000 in [10] (Day 0); 590000 and 720000 and 910000 and 860000 and 880000 and 890000 in test [10] (Day 12). Moreover, the “RelB cleavage in stimulated Jurkat T cells” value in test [11] (result in words) is listed as “suppressed the cleavage”. Besides, in test [12], the “RelB cleavage in TMD8 cells” value is on record as “markedly reduced cleavage of RelB”. The “IL-10 mRNA (normalized)” value in [13] was 0.19 and 0.23 and 0.25 and 0.2 and 0.18 and 0.32.

Consider `CN1CCCC(CN2c3ccccc3Sc3ccccc32)C1` (stereo not shown) [Mepazine, mepazine, reference compound], for which the “IL2 mRNA (normalized)” value in test [1] (5 μM) was 0.1528 and 0.1464 and 0.1468. In addition, in [2] (setting [14]), the N4BP1 cleavage ratio was 1.53 and 0.8223 and 0.868 and 0.8072. The “BCL10 and MALT1 protein levels” value in test [3] and in test [4] was “not observed” each time. Moreover, the “OCI-Ly3 Viable Cells” value in [6] was determined as 20000. Also, the activity at 1 µM in [7] (Homo sapiens, Jurkat, PMA/Iono treated, 1 uM, Suppl Fig. 4A, read-out: IL-2 protein level (% of control)) was found to be 67.8%. Also, the “IL-2 protein level (% of control)” value in test [7] (PMA/Iono treated, 1 uM, Suppl Fig. 4A) was 72.9318 % of control and 62.9989 % of control. For the same molecule, the “TMD8 Viable Cells” value in [8] (Day 0) is 20000; in test [8] (Day 12), 830000 and 460000 and 590000. This molecule showed a Viable cell count in [9] of 20000. Also, the “OCI-Ly1 Viable Cells” value in test [10] (Day 0) was 40000 and 20000; in [10] (Day 7), 99000 and 98000 and 71000; in test [10] (Day 10), 280000 and 250000 and 290000. Further, the Cl-RelB/FL-RelB ratio in [11] (setting [14]) was 0.1288 and 0.1917 and 0.1562 and 0.1166.
